Values quoted from earlier work, collected in patent US20060182729A1, “Combat/training antioxidant micronutrient formulation and method of administration” (priority 2005, published 2006).

Columns and labels:
[1] = test system: mutagens in the small intestine; settings: supplementation
[2] = oral supplementation, human subjects

plasma levels of glutathione [2]	SMILES	formation of mutagens in the small intestine [1]
	O=C1O[C@H]([C@@H](O)CO)C(O)=C1O [vitamin C, ascorbic acid]	reduces
failed to significantly increase	N[C@@H](CCC(=O)N[C@@H](CS)C(=O)NCC(=O)O)C(=O)O [glutathione]	
